The values below come from patent US4265901A, “2-Oxybenzimidazoline compounds” (priority 1979, dated 1981).

Structures can show the parent of a compound that is named as a salt.

Experiment [1] concerns blowfly larvae. Nature of the experiment: Efficacy against blowfly larvae, calves intravenous injection (Example 17). The experiment is classed as in vivo, Phormia regina. The following applies: daily i.v. 0.5 to 1.5 mg/kg escalating, day per line. The method, then:
(§1) Representative compounds of the present invention were evaluated against larvae of blowfly (Phormia regina) and against adult housefly (Musca domestica). In these evaluations, the candidate compound was administered to each of two male guinea pigs weighing from about 400 grams to about 1000 grams. Administration was via the intraperitoneal route, the compound having been formulated in sesame oil. At twenty-four hours following administration of the compound, blood was withdrawn from the guinea pigs. The serum portion was isolated and blowfly larvae and adult houseflies were fed on the serum. For the blowfly assay, 10 ml. of serum were placed in a test tube with a wick onto which 50 blowfly larvae were placed. The covered test tube was incubated at 27° C. for 24 hours, at which time efficacy of the candidate compound was determined as the percent mortality of the blowfly larvae, adjusted by normal mortality in a control, and reported according to the following rating scale:
A group of three calves each weighing about 220 kilograms was employed. […]
On each day of the evaluation, immediately preceding that day's injection, a sample of blood was withdrawn from each calf. The concentration of the compound in the blood was determined; and the efficacy of the compound against adult housefly and blowfly larvae was assayed by the method described in Example 15. […]

Experiment [2] concerns adult housefly. The experiment in a line: Adult houseflies fed on serum of dosed guinea pigs. To be noted: guinea pig, serum at 24 hours. The experiment is classed as in vivo, Musca domestica. The method, then:
as §1
Percent mortality was determined separately for each guinea pig.
For the adult housefly test, 10 ml. of serum were employed to saturate a wick which was placed in a petri dish. Twenty-five chilled houseflies were placed in the dish which was then incubated for 24 hours at 27° C. and 50% relative humidity. After the end of the twenty-four hours, the efficacy of the candidate compound was determined as the percent mortality of housefly, adjusted as for blowfly by normal mortality in a control and reported according to the same scale as above.

In the case of `O=[N+]([O-])c1cc(C(F)(F)F)cc2c1NC(O)(C(F)(F)C(F)F)N2` (stereo not shown) [Example 2, 2-Hydroxy-2-(1,1,2,2-Tetrafluoroethyl)-4-Nitro-6-(Trifluoromethyl)Benzimidazoline, Sodium Salt, and Hydrate], the “% Efficacy, Blowfly Larvae” value in experiment [1] (calf 986) and in experiment [1] (calf 991) was 100% throughout.

`O=[N+]([O-])c1cc(Cl)cc2c1NC(O)(C(F)F)N2` (stereo not shown) [Example 5, 2-Hydroxy-2-(Difluoromethyl)-4-Nitro-6-Chlorobenzimidazoline, Calcium Salt]: the “Efficacy Rating, Adult Housefly” value in experiment [2] (1 mg./kg. i.p.) and in experiment [2] (5 mg./kg. i.p.) was 1 (<50% dead) in each case.
